This is an account of results in publication PMC3135721 (Journal of medicinal chemistry, 2010).

The experiment addresses TSPO (Rattus norvegicus, UniProt P16257). The experiment can be described thus: Inhibition of [3H]1 binding to rat kidney mitochondrial membranes. Particulars: ratio of Ki, 20 vs Ib, 21 vs Ic.

`CCCCCCN(CCCCCC)C(=O)C(=O)c1c(-c2ccccc2)n(C)c2ccccc12` [compound 21]: the “gain in activity with respect to desmethyl counterpart” value is on record as 4.6.
To `CCCCN(CCCC)C(=O)C(=O)c1c(-c2ccccc2)n(C)c2ccccc12` [compound 20] belongs 25.
